Measured values taken from patent publication US20230218558A1, “NOVEL THERAPEUTIC USE OF PLEUROMUTILINS” (priority 2020, published 2023).
Converted amounts (≈) assume the structure as drawn. Read-outs that look alike come from different tables or passages of the source.

Assays:
[1] = system: influenza A/Puerto Rico/8/34 (H1N1); type: in vivo, BALB/c mice; conditions: for effect on bodyweight / bodyweight loss: SC, investigated doses, FIG. 7A; for lung viral titre (TCID50 on MDCK cells): Day 3 and Day 6, Lefamulin at both doses, compared with vehicle treated control
[2] = system: influenza virus strain A/PR/8/34; test: Inhibition of virus-induced CPE, influenza virus in MDCK cells; type: cell-based
MDCK cells = conditions: Example 10; for CC50: read-out: TC50, MDCK cells
polio virus = conditions: cited from earlier work
[3] = system: influenza A virus strain (PR8); conditions: concentration of 2 mg/mL; cited from earlier work
[4] = system: vesicular stomatitis virus (VSV); conditions: cited from earlier work
[5] = system: herpes simplex type 1 (HSV-1) virus; conditions: cited from earlier work
MRC-5 cells [6] = conditions: human
Huh7 cells = test: Cell viability, Huh7 cells, XTT
[7] = system: human rhinovirus strain HRV16 strain 11757; test: Inhibition of virus-induced CPE, human rhinovirus in H1-HeLa cells; type: cell-based; conditions: Example 9, rhinovirus HRV1611757, 4 h pretreatment, MOI 0.0005
Protocol: Cell viability determination as well as EC50 and TC50 calculations were performed as described in Examples 1 and 3.

HEp2 cells = test: Cell viability of uninfected drug control wells, HEp2 cells, XTT; conditions: Example 3
MRC-5 cells [8] = test: Cell viability of uninfected drug control wells, MRC-5 cells, XTT; conditions: Example 1; for cytotoxic effect on the viability of the cell control: concentration 10 μM (b103 prints 10 M for Lefamulin); for cytotoxic effect: concentration 50 μM
[9] = system: Measles virus strain Edmonston; test: microbe, parasite or virus in culture; type: cell-based; conditions: Measles morbillivirus, HeLa
HeLa cells = test: Cell viability, HeLa cells, XTT; conditions: read-out: TC50, Example 6
[10] = system: influenza A virus, porcine reproductive and respiratory syndrome virus (PRRSV) type 1 and 2; conditions: WO 2009/106839; 4 hours post inoculation; cited from earlier work
[11] = read-out: TC50, Example 8, Zika experiment
[12] = high dose: 105 mg/kg/day SC in three injections until day 3, then 70 mg/kg twice daily

SMILES: CCOC(=O)C1=C[C@@H](OC(CC)CC)[C@H](NC(C)=O)[C@@H](N)C1 [Oseltamivir]
- effect on bodyweight / bodyweight loss ([1]; BALB/c mice): reduction
- clinical scores ([1]; BALB/c mice, positive control treatment, FIG. 7B): reduction
- lung viral titre (TCID50 on MDCK cells) [1]: reduced lung viral titres
- EC50 [2]: 0.06 µM
- CC50 (MDCK cells): > 200 µM

SMILES: C=C[C@]1(C)C[C@@H](OC(=O)CO)[C@]2(C)[C@H](C)CC[C@]3(CCC(=O)[C@H]32)[C@@H](C)[C@@H]1O [Pleuromutilin]
- antiviral activity (polio virus): did not show antiviral activity
- antiviral activity [3]: antiviral activity
- activity against vesicular stomatitis virus [4]: activity
- concentration that conferred a 50% protection of the cytopathic effect induced by HSV-1 (CPE50) [5]: 15 µg/mL
- EC50 ([5]; read-out: concentration that conferred a 50% protection of the cytopathic effect induced by HSV-1 (CPE50)): 40 µM

SMILES: CCC(CC)COC(=O)[C@H](C)N[P@](=O)(OC[C@H]1O[C@@](C#N)(c2ccc3c(N)ncnn23)[C@H](O)[C@@H]1O)Oc1ccccc1 [Remdesivir]
- CC50 (MRC-5 cells [6]): > 5 µM

SMILES: CC(C)OC(=O)[C@H](C)N[P@](=O)(OC[C@H]1O[C@@H](n2ccc(=O)[nH]c2=O)[C@](C)(F)[C@@H]1O)Oc1ccccc1 [Sofosbuvir]
- CC50 (Huh7 cells; [11]): > 10 µM

SMILES: CCOC(=O)/C=C/[C@H](C[C@@H]1CCNC1=O)NC(=O)[C@@H](CC(=O)[C@@H](NC(=O)c1cc(C)on1)C(C)C)Cc1ccc(F)cc1 [Rupintrivir]
- EC50 [7]: 0.0049 µM

SMILES: C=C[C@]1(C)C[C@@H](OC(=O)CSCCN(CC)CC)[C@]2(C)[C@H](C)CC[C@]3(CCC(=O)[C@H]32)[C@@H](C)[C@@H]1O [Tiamulin]
- viability (HEp2 cells; concentration 10 μM): 84%
- viability (HEp2 cells; concentration 50 μM): 70.0%
- CC50 (MRC-5 cells [6]; 6 days): 62.9 µM
- cytotoxic effect on the viability of the cell control (MRC-5 cells [8]): no cytotoxic effect was observed
- cytotoxic effect (MRC-5 cells [8]): a cytotoxic effect was observed

SMILES: NC(=O)c1ncn([C@@H]2O[C@H](CO)[C@@H](O)[C@H]2O)n1 [Ribavirin]
- EC50 [9]: 1.88 µg/mL (≈ 7.7 µM)

SMILES: C=C[C@]1(C)C[C@@H](OC(=O)CS[C@@H]2CC[C@@H](N)C[C@H]2O)[C@]2(C)C(C)CC[C@]3(CCC(=O)[C@H]32)[C@@H](C)[C@@H]1O (stereo partly drawn) [Lefamulin, 14-O-{[(1R, 2R, 4R)-4-amino-2-hydroxy-cyclohexylsulfanyl]-acetyl}-mutilin]
- effect on bodyweight / bodyweight loss ([1]; BALB/c mice): did not have a significant effect
- lung viral titre (TCID50 on MDCK cells) [1]: reduced lung viral titres
- clinical scores compared to vehicle [1, 12]: increase in clinical scores
- survival compared to vehicle [1, 12]: decrease in survival
- bronchial degeneration and alveolar inflammation (histopathology) ([1]; high dose, Day 6 lungs, compared to vehicle): significant reduction
- overall histopathology score ([1]; high dose, Day 6 lungs, compared to vehicle treated control): overall significant reduction
- survival ([1]; lower dose: 35 mg/kg SC twice daily (70 mg/kg/day), until day 6): 90%
- cytotoxic effect (HEp2 cells; concentration 100 μM): cytotoxic effect
- cytotoxic effect on the viability of the cell control (HEp2 cells; concentrations 10 μM and 50 μM): no cytotoxic effect
- CC50 (HeLa cells): 72.7 µM
- EC50 [2]: > 23.8 µM
- EC50 [7]: 9.34 µM
- CC50 (Huh7 cells; read-out: TC50, Example 7, Dengue experiment): 23.3 µM
- CC50 (Huh7 cells; [11]): 23.4 µM
- concentrations cytotoxic to MDCK cells (MDCK cells): greater than 23 μM
- CC50 (MDCK cells): 23.8 µM
- cytotoxic effect on the viability of the cell control (MRC-5 cells [8]): no cytotoxic effect
- cytotoxic effect (MRC-5 cells [8]): cytotoxic effect
- TC50 (MRC-5 cells [8]; uninfected MRC-5 cells, 6 days): 55.3 µM

SMILES: C=C[C@]1(C)C[C@@H](OC(=O)CSC(C)(C)CNC(=O)[C@H](N)C(C)C)[C@]2(C)[C@H](C)CC[C@]3(CCC(=O)[C@H]32)[C@@H](C)[C@@H]1O [Valnemulin]
- antiviral activity [10]: did not exhibit antiviral activity
